{
  "source": "BindingDB's records for doi:10.1002/prot.21207",
  "about": "(The Procter & Gamble Pharmaceuticals, 2007)",
  "data": [
    {"molecular_target": "T1, Methionine aminopeptidase (Escherichia coli (strain K12), UniProt P0AE18)", "T1 sequence (P0AE18 whole entry)": "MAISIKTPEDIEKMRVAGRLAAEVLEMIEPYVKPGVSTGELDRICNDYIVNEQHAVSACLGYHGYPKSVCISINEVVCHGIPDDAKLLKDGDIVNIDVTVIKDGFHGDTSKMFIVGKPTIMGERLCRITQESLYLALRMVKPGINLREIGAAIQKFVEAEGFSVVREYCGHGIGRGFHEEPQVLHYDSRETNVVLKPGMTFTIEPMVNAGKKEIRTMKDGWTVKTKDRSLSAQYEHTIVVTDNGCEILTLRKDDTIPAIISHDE", "test": "EcMAP Enzyme Inhibition Assay", "conditions": "pH 7.5; 30 °C", "procedure": "The inhibitory activity of a compound toward EcMAP was measured by incubating the compound at various concentrations in the presence of the enzyme and the peptide substrate MGMM. Activity can be determined based on the amount of GMM produced or the amount of MGMM consumed. The integrated area of the tripeptide or tetrapeptide peak was compared to a calibration curve generated by running HPLC chromatograms of known concentrations of the polypeptides.", "units": {"IC50": "nM"}, "values": [
      {"smiles": "N=c1nnc(=N)c1=NNc1cccc(C(=O)O)c1O", "note": "[3-[(E)-2-(5-amino-3-imino-3H-pyrazol-4-yl)diazen-1-yl]-2-hydroxybenzoic acid]", "IC50": 2000},
      {"smiles": "COc1ccc(NN=c2c(=N)nnc2=N)cc1", "note": "[3-imino-4-[(E)-2-(4-methoxyphenyl)diazen-1-yl]-3H-pyrazol-5-amine]", "IC50": 1500},
      {"smiles": "Cc1c(Cl)cccc1NN=c1c(=N)nnc1=N", "note": "[4-[(E)-2-(3-chloro-2-methylphenyl)diazen-1-yl]-3-imino-3H-pyrazol-5-amine]", "IC50": 550},
      {"smiles": "N=c1nnc(=N)c1=NNc1cccc(F)c1", "note": "[4-[(E)-2-(3-fluorophenyl)diazen-1-yl]-3-imino-3H-pyrazol-5-amine]", "IC50": 550},
      {"smiles": "N=c1nnc(=N)c1=NNc1ccc(Cl)cc1", "note": "[4-[(E)-2-(4-chlorophenyl)diazen-1-yl]-3-imino-3H-pyrazol-5-amine]", "IC50": 1250}
    ]}
  ]
}
